We go through twelve molecules from patent US20240116985A1, “STAPLED PEPTIDES AND METHODS THEREOF” (priority 2020, published 2024).

Each structure is given as a SMILES string. ≈ marks a conversion by molar mass, not a printed value. Where two headings read alike, the source gives them in different places. Some results are limits rather than exact numbers.

In series [1] the target is T1, full-length beta-Catenin (Uniprot ID P35222) (Homo sapiens, UniProt P35222).
T1 construct: 10 nM full-length beta-Catenin (Uniprot ID P35222)
T1 sequence (P35222 1-781): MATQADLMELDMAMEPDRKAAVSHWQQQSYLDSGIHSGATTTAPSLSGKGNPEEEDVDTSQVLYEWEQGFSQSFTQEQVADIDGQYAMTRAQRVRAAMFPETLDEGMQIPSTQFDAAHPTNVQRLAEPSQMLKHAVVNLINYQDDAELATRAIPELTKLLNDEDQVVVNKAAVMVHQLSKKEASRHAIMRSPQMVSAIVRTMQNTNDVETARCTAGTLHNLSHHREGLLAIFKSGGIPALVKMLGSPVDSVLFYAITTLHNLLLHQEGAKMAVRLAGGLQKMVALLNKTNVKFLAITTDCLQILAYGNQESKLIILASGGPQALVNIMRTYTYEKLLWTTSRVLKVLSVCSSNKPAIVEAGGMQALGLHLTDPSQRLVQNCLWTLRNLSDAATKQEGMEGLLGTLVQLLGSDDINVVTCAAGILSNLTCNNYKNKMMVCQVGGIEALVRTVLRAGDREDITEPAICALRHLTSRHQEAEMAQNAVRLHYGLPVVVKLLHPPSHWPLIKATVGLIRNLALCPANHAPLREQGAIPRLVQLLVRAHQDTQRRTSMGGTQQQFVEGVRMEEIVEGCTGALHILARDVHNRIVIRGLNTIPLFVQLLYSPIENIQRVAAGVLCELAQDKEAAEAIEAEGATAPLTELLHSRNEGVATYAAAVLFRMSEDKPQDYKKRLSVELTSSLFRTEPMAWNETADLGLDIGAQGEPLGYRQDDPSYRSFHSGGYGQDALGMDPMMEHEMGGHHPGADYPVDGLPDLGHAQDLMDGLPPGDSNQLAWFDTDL
The series is described as follows: Fluorescence polarization IC50 (beta-catenin / 5FAM-TCF4 10-53 competition). Format: binding. To be noted: fluorescence polarization; read-out: beta-Catenin FP IC50. In general terms: Fluorescence polarisation rises when a labelled molecule tumbles more slowly, as on binding a larger partner.

The next series in a line: Solubility in PBS. Format: physicochemical. The essentials:
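The PBS solution was ultracentrifuged and the supernatant analyzed by HPLC. Its peak area was divided by that of a 50 μM peptide DMSO reference injection and multiplied by 50 uM to give solubility.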

In series [2] the target is T2, beta-catenin/TCF4 engagement (Homo sapiens, UniProt P35222).
T2 construct: expressed in transfected cells; host or cells: HEK293
T2 sequence (P35222 1-781): T1 sequence (P35222 1-781)
The series is described as follows: Nano-BRET target engagement assay (B-cat-Halo & TCF4-Luc in HEK293 cells). To be noted: absolute IC50; read-out: NanoBRET Abs IC50. Format: cell-based. A general note: In BRET a luciferase serves as donor, and the signal depends on an acceptor being close.

By IC50 is commonly meant the concentration at which inhibition is half-maximal. As usually defined, the Solubility is the dissolved amount per volume that the medium holds. The low end stands for little dissolved substance, the high end for much dissolved substance. With `CC(=O)N1CCC[C@]12CC=CCCCC1(CCCC=CCCCOC(=O)N3CC[C@@](C(=O)N[C@@H](Cc4ccsc4)C(=O)N[C@@H](Cc4csc5ccccc45)C(=O)N[C@H](CO)[C@@H](C)O)(C3)NC(=O)[C@H](CC(C)C)NC(=O)[C@H](Cc3ccccc3)NC(=O)[C@H](C)NC(=O)[C@H](C)NC(=O)[C@H](CC(=O)O)NC(=O)[C@H](CC(=O)O)NC1=O)NC(=O)[C@H](CC(C)(C)C)NC(=O)[C@H](CC(N)=O)NC2=O` (stereo partly drawn) [I-1304, Ac-PL3-Asn-Npg-B5-Asp-Asp-Ala-Ala-Phe-Leu-PyrS2-3Thi-BztA-Thro1], the half-inhibitory concentration (IC50) is 31 nM in series [1] and 33600 nM in series [2]. Moreover, the “Solubility” value in “Solubility in PBS” is 10 µM (≈ 18.8 µg/mL).
Take `CC(=O)N1CCC[C@]12CC=CCCCC1(CCCC=CCCCOC(=O)N3CC[C@@](C(=O)N[C@@H](Cc4ccsc4)C(=O)N[C@@H](Cc4csc5ccccc45)C(=O)N[C@H](CO)[C@@H](C)O)(C3)NC(=O)[C@H](CCO)NC(=O)[C@H](Cc3ccccc3)NC(=O)[C@H](C)NC(=O)[C@H](C)NC(=O)[C@H](CC(=O)O)NC(=O)[C@H](CC(=O)O)NC1=O)NC(=O)[C@H](CC(C)(C)C)NC(=O)[C@H](CC(=O)O)NC2=O` (stereo partly drawn) [I-1305, Ac-PL3-Asp-Npg-B5-Asp-Asp-Ala-Ala-Phe-Hse-PyrS2-3Thi-BztA-Thro1]: the IC50 came to 6 nM in series [1] and 9700 nM in series [2]. Also, in “Solubility in PBS” (Solubility (uM)), the Solubility is 49 µM (≈ 91.4 µg/mL).
In the case of `CC(=O)N1CCC[C@]12CC=CCCCC1(CCCC=CCCCCCC[C@@](C)(C(=O)N[C@@H](Cc3ccccc3Cl)C(=O)N[C@@H](Cc3csc4ccccc34)C(=O)N[C@H](CO)[C@@H](C)O)NC(=O)[C@H]([C@@H](C)O)NC(=O)[C@H](Cc3ccccc3)NC(=O)[C@H](C)NC(=O)[C@H](C)NC(=O)[C@H](CC(=O)O)NC(=O)[C@H](CC(=O)O)NC1=O)NC(=O)[C@H](CC(C)(C)C)NC(=O)[C@H](CC(=O)O)NC2=O` (stereo partly drawn) [I-1308, Ac-PL3-Asp-Npg-B5-Asp-Asp-Ala-Ala-Phe-Thr-S8-2C1F-BztA-Thro1], the IC50 in series [1] is 25 nM; in series [2], 11900 nM. In addition, in the series “Solubility in PBS” (Solubility (uM)), the Solubility turned out to be 47 µM (≈ 87 µg/mL).
Turning to `CC(=O)N1CCC[C@]12CC=CCCCC1(CCCC=CCCCOC(=O)N3CC[C@@](C(=O)N[C@@H](Cc4ccccc4Cl)C(=O)N[C@@H](Cc4csc5ccccc45)C(=O)N[C@H](CO)[C@@H](C)O)(C3)NC(=O)[C@H]([C@@H](C)O)NC(=O)[C@H](Cc3ccccc3)NC(=O)[C@H](C)NC(=O)[C@H](C)NC(=O)[C@H]([C@@H](C)O)NC(=O)[C@H](CC(=O)O)NC1=O)NC(=O)[C@H](CC(C)(C)C)NC(=O)[C@H](CC(=O)O)NC2=O` (stereo partly drawn) [I-1309, Ac-PL3-Asp-Npg-B5-Asp-Thr-Ala-Ala-Phe-Thr-PyrS2-2C1F-BztA-Thro1], the IC50 in series [1] was found to be 59 nM; in series [2] it was 28600 nM. In addition, the “Solubility” value in “Solubility in PBS” is 10 µM (≈ 18.8 µg/mL).
For `CC(=O)N1CCC[C@]12CC=CCCCC1(CCCC=CCCCOC(=O)N3CC[C@@](C(=O)N[C@@H](Cc4ccccc4Cl)C(=O)N[C@@H](Cc4csc5ccccc45)C(=O)N[C@H](CO)[C@@H](C)O)(C3)NC(=O)[C@H]([C@@H](C)O)NC(=O)[C@H](Cc3ccccc3)NC(=O)[C@H](C)NC(=O)[C@H](C)NC(=O)[C@H]([C@@H](C)O)NC(=O)[C@H](CC(=O)O)NC1=O)NC(=O)[C@H](CC1CCCCC1)NC(=O)[C@H](CC(=O)O)NC2=O` (stereo partly drawn) [I-1310, Ac-PL3-Asp-Cha-B5-Asp-Thr-Ala-Ala-Phe-Thr-PyrS2-2ClF-BztA-Thro1], the figures for the IC50 in series [1] and in series [2] were 124 nM and more than 20000 nM, respectively. The “Solubility” value in “Solubility in PBS” is 10 µM (≈ 19.1 µg/mL).
`CC(=O)N1CCC[C@]12CC=CCCCC1(CCCC=CCCCOC(=O)N3CC[C@@](C(=O)N[C@@H](Cc4ccccc4Cl)C(=O)N[C@@H](Cc4csc5ccccc45)C(=O)N[C@H](CO)[C@@H](C)O)(C3)NC(=O)[C@H](Cc3ccccc3)NC(=O)[C@H](Cc3ccccc3)NC(=O)[C@H](C)NC(=O)[C@H](C)NC(=O)[C@H](CC(=O)O)NC(=O)[C@H](CC(=O)O)NC1=O)NC(=O)[C@H](CC(C)(C)C)NC(=O)[C@H](CC(=O)O)NC2=O` (stereo partly drawn) [I-1311, Ac-PL3-Asp-Npg-B5-Asp-Asp-Ala-Ala-Phe-Phe-PyrS2-2C1F-BztA-Thro1]: the IC50 came to 38 nM in series [1] and 20600 nM in series [2]. The “Solubility” value in the series “Solubility in PBS” was found to be 10 µM (≈ 19.4 µg/mL).
`CC(=O)N1CCC[C@]12CC=CCCCC1(CCCC=CCCCOC(=O)N3CC[C@@](C(=O)N[C@@H](Cc4ccccc4Cl)C(=O)N[C@@H](Cc4csc5ccccc45)C(=O)N[C@H](CO)[C@@H](C)O)(C3)NC(=O)[C@H]([C@@H](C)O)NC(=O)[C@H](Cc3ccccc3)NC(=O)[C@H](C)NC(=O)[C@H](C)NC(=O)[C@H](CC(=O)O)NC(=O)[C@H](CC(=O)O)NC1=O)NC(=O)[C@H](CC1CCCCC1)NC(=O)[C@H](CC(=O)O)NC2=O` (stereo partly drawn) [I-1312, Ac-PL3-Asp-Cha-B5-Asp-Asp-Ala-Ala-Phe-Thr-PyrS2-2C1F-BztA-Thro1]: the IC50 in series [1] came out at 14 nM; in series [2] it was 16100 nM. The same molecule had a Solubility in the series “Solubility in PBS” (Solubility (uM)) of 46 µM (≈ 88.3 µg/mL).
In the case of `CC(=O)N1CCC[C@]12CC=CCCCC1(CCCC=CCCCOC(=O)N3CC[C@@](C(=O)N[C@@H](Cc4ccccc4C(N)=O)C(=O)N[C@@H](Cc4csc5ccccc45)C(=O)N[C@@H](CCC(N)=O)C(N)=O)(C3)NC(=O)[C@H](CC(N)=O)NC(=O)[C@H](Cc3ccccc3)NC(=O)[C@H](C)NC(=O)[C@H](C)NC(=O)[C@H](CC(=O)O)NC(=O)[C@H](CC(=O)O)NC1=O)NC(=O)[C@H](CC(C)(C)C)NC(=O)[C@H](CC(=O)O)NC2=O` (stereo partly drawn) [I-1314, Ac-PL3-Asp-Npg-B5-Asp-Asp-Ala-Ala-Phe-Asn-PyrS2-2cbmF-BztA-Gln-NH2], the figures for the IC50 in series [1] and in series [2] were 9 nM and more than 20000 nM, respectively. Moreover, in “Solubility in PBS” (Solubility (uM)), the Solubility was determined as 48 µM (≈ 93.8 µg/mL).
Consider `CC(=O)N1CCC[C@]12CC=CCCCC1(CCCC=CCCCOC(=O)N3CC[C@@](C(=O)N[C@@H](Cc4ccccc4C(N)=O)C(=O)N[C@@H](Cc4csc5ccccc45)C(=O)N[C@@H](CCC(N)=O)C(N)=O)(C3)NC(=O)[C@H](CC(C)C)NC(=O)[C@H](Cc3ccccc3)NC(=O)[C@H](C)NC(=O)[C@H](C)NC(=O)[C@H](CC(=O)O)NC(=O)[C@H](CC(=O)O)NC1=O)NC(=O)[C@H](CC(C)(C)C)NC(=O)[C@H](CC(=O)O)NC2=O` (stereo partly drawn) [I-1315, Ac-PL3-Asp-Npg-B5-Asp-Asp-Ala-Ala-Phe-Leu-PyrS2-2cbmF-BztA-Gln-NH2], for which the IC50 was 13 nM in series [1] and 7200 nM in series [2]. In “Solubility in PBS”, the “Solubility” value turned out to be 10 µM (≈ 19.5 µg/mL).
Regarding `CC(=O)N1CCC[C@]12CC=CCCCC1(CCCC=CCCCOC(=O)N3CC[C@@](C(=O)N[C@@H](Cc4ccccc4C(N)=O)C(=O)N[C@@H](Cc4csc5ccccc45)C(=O)N[C@@H](CCC(N)=O)C(N)=O)(C3)NC(=O)[C@H](Cc3ccccc3)NC(=O)[C@H](Cc3ccccc3)NC(=O)[C@H](C)NC(=O)[C@H](C)NC(=O)[C@H](CC(=O)O)NC(=O)[C@H](CC(=O)O)NC1=O)NC(=O)[C@H](CC(C)(C)C)NC(=O)[C@H](CC(=O)O)NC2=O` (stereo partly drawn) [I-1316, Ac-PL3-Asp-Npg-B5-Asp-Asp-Ala-Ala-Phe-Phe-PyrS2-2cbmF-BztA-Gln-NH2], the half-inhibitory concentration (IC50) came to 11 nM in series [1] and 6800 nM in series [2]. Besides, the Solubility in the series “Solubility in PBS” (Solubility (uM)) stood at 48 µM (≈ 95.4 µg/mL).
Regarding `CC(=O)N1CCC[C@]12CC=CCCCC1(CCCC=CCCCOC(=O)N3CC[C@@](C(=O)N[C@@H](Cc4ccccc4C(F)(F)F)C(=O)N[C@@H](Cc4csc5ccccc45)C(=O)N[C@@H](CCC(N)=O)C(N)=O)(C3)NC(=O)[C@H](CC(N)=O)NC(=O)[C@H](Cc3ccccc3)NC(=O)[C@H](C)NC(=O)[C@H](C)NC(=O)[C@H](CC(=O)O)NC(=O)[C@H](CC(=O)O)NC1=O)NC(=O)[C@H](CC(C)(C)C)NC(=O)[C@H](CC(=O)O)NC2=O` (stereo partly drawn) [I-1317, Ac-PL3-Asp-Npg-B5-Asp-Asp-Ala-Ala-Phe-Asn-PyrS2-2F3MeF-BztA-Gln-NH2], the IC50 was 9 nM in series [1] and 9700 nM in series [2]. The molecule further displayed a Solubility in the series “Solubility in PBS” (Solubility (uM)) of 49 µM (≈ 97 µg/mL).
Take `CC(=O)N1CCC[C@]12CC=CCCCC1(CCCC=CCCCOC(=O)N3CC[C@@](C(=O)N[C@@H](Cc4ccccc4F)C(=O)N[C@@H](Cc4csc5ccccc45)C(=O)N[C@@H](CCC(N)=O)C(N)=O)(C3)NC(=O)[C@H](CC(N)=O)NC(=O)[C@H](Cc3ccccc3)NC(=O)[C@H](C)NC(=O)[C@H](C)NC(=O)[C@H](CC(=O)O)NC(=O)[C@H](CC(=O)O)NC1=O)NC(=O)[C@H](CC(C)(C)C)NC(=O)[C@H](CC(=O)O)NC2=O` (stereo partly drawn) [I-1320, Ac-PL3-Asp-Npg-B5-Asp-Asp-Ala-Ala-Phe-Asn-PyrS2-2FF-BztA-Gln-NH2]: the IC50 amounted to 10 nM in series [1] and 26200 nM in series [2]. This molecule also came in with a Solubility in “Solubility in PBS” (Solubility (uM)) of 44 µM (≈ 84.9 µg/mL).
